Measurements as given in publication PMC10723784, “Investigation of the cytotoxicity induced by cannabinoids on human ovarian carcinoma cells” (Pharmacology Research & Perspectives, 2023).

Key:
[1] = system: ARPE19 cells; test: Annexin V assay, ARPE19 cells; assay type: cell-based, human; conditions: ARPE19, 50 μM, 24 h
Experimental: The Annexin V assay was performed to differentiate healthy cells from early and late apoptotic cells. Cells were seeded in T25 flasks at 2.75 × 10^5 cells per flask and were incubated for 24 h. After the incubation time elapsed, drugs at concentrations of 10, 30, and 50 μM or vehicle were added to the flasks and further incubated for 24 h. Cells were suspended in PBS at a density of 4 × 10^5 cells/mL, followed by centrifugation at 400 g for 5 min. The supernatant was removed and replaced with 100 μL of Annexin V mix, 94 μL of Roche buffer, 2 μL of Annexin V‐CF488A, 2 μL of 10 μg/mL of propodium iodide (PI), and 2 μL of Hoechst 33342 buffer. Hoechst 33342 buffer in the Annexin V mix binds to the nuclei in the sample and fluoresces violet. The early apoptotic cells are stained with Annexin V‐CF488A, which fluoresces green. The non‐viable cells are stained by PI, and the late apoptotic cells are stained by both PI and Annexin V‐CF488A, which fluoresces red and green, respectively. […] After the incubation time elapsed, 40 μL of samples were loaded on to an A‐2 slide and were analyzed immediately using the NC‐3000 system. The scatter plot of the fluorescence intensity of Annexin V‐CF488A versus the fluorescence intensity of PI was used as a representation of cells in different stages of apoptosis.

[2] = MTT cytotoxicity assay, non-cancer ARPE19 cells; conditions: human, ARPE19 non-cancer retinal pigment cells
Experimental: Human ovarian carcinoma cells, A2780 (sensitive to chemotherapeutics), A2780/CP70 (resistant to chemotherapeutics), and non‐cancerous cells including PNT2 (normal prostate epithelial cell line), and/or ARPE19 (human retinal pigment cell line) were maintained according to the ATCC and ECACC guidelines.
In vitro chemosensitivity assays were performed using the MTT assay as previously described.[32], [33] Briefly, at 70% confluency, cells were seeded in 96‐well plates at a density of 2000 cells/well. […] After the allocated contact time had elapsed, the media was removed and 0.5% (w/v) MTT solution diluted in complete media (200 μL) was added to each well. Following a 4 h incubation, the supernatants were removed, and the formazan crystals were dissolved in dimethylsulfoxide (150 μL). The absorbance was read at 540 nm on a Tecan Infinite 50 plate UV reader.

[3] = system: caspase 3/7 activity in A2780/CP70 cells; test: Caspase 3/7 assay, A2780/CP70 cells; assay type: cell-based, human; conditions: A2780/CP70, 24 h contact time, dose-dependent, significant above 10 μM
Experimental: (§1) Sensolyte homogenous caspase 3/7 assay kit was used to determine the caspase activity in ovarian cancer cells when treated with CBG. Cells were seeded in 96‐well plate at 6 × 10^3 cells per well and were incubated for 24 h. CBG was added in concentrations of 10, 20, 30, and 50 μM and incubated for a further 24 h. After the incubation time elapsed, the media was removed and replaced with 150 μL/well of fresh complete media. Caspase 3/7 solution was prepared by diluting the caspase substrate 1:100 with DTT‐containing assay buffer. 50 μL/well caspase substrate was added to the plates, and the cells were incubated for 30 min. Ac‐DEVD‐AMC serves as the fluorogenic indicator for assaying caspase‐3/7 activity. Ac‐DEVD‐AMC generates the AMC fluorophore in the presence of caspase 3/7, which produces bright blue fluorescence. The fluorescence was measured by the FLOUstar OPTIMA plate reader with the excitation at 354 nm and emission at 442 nm.
(§2) The level of caspase 3/7 was also determined using Apotox‐Glo Triple assay. Cells were seeded and drugs were added as described above in Section 2.6.1. After 24 h incubation, caspase 3/7 reagent was prepared by mixing caspase buffer and substrate and 100 μL of reagent was added to each well for 30 min incubation at room temperature. […] The luminescence was measured by the FLOUstar OPTIMA plate reader.

[4] = system: A2780/CP70 cells; test: Mitochondrial membrane potential assay (JC-1), A2780/CP70 cells; assay type: cell-based, human; conditions: A2780/CP70, 10-50 μM, 24 h, dose-dependent
Experimental: The mitochondrial membrane potential assay was performed to detect the loss in mitochondrial potential (de‐polarization), which is a vital step in apoptosis.[36] Cells were seeded in T25 flasks at 4 × 10^5 cells per flask and were incubated for 48 h or until they reached confluency. After the incubation time elapsed, drugs at concentrations of 10, 30, and 50 μM or vehicle were added to the flasks and further incubated for 24 h. After 24 h elapsed, the cells were harvested and suspended in PBS. Cell viability and number were determined by the cell viability assay using via1 cassettes on NC‐3000 system. The samples were diluted in PBS to 1 × 10^6 cells/mL and 2.5 μg/mL of JC‐1 dye was added to each sample. JC‐1 is a […] dye, which stains as fluorescent red as it aggregates in the mitochondrial matrix. In the absence of mitochondrial membrane potential, JC‐1 localizes in the cytosol in its fluorescent green form. Following the addition of JC‐1, the cells were incubated for 10–30 min at 37°C. […] 12.5 μL of samples were loaded on to an A‐8 slide and were analyzed using the NC‐3000 image cytometry. The degree of apoptosis (in proportional to the loss in mitochondrial membrane potential) was measured using a scatter plot of JC‐1 red fluorescence versus JC‐1 green fluorescence.

[5] = system: caspase 3/7 activity in A2780 cells; test: Caspase 3/7 assay, A2780 cells; assay type: cell-based, human; conditions: A2780, 24 h contact time, dose-dependent, significant above 10 μM
Experimental: as §1, §2

Compound: CCCCCc1cc(O)c(C/C=C(\C)CCC=C(C)C)c(O)c1 [CBG, cannabigerol]
- Cells in early apoptosis [1]: 54 ± 2.1%
- Cells in late apoptosis [1]: 5.6 ± 1.8%
- IC50 at 24 h [2]: 32.1 ± 1.8 µM
- IC50 at 48 h [2]: 21.2 ± 2.7 µM
- IC50 at 72 h [2]: 19.2 ± 1 µM
- IC50 at 96 h [2]: 17.4 ± 2.4 µM
- Caspase 3/7 activity [3]: increased the caspase 3/7 activity
- Percentage of apoptotic cells (loss of mitochondrial membrane potential) [4]: induced an increase in the percentage of apoptotic cells
- Caspase 3/7 activity [5]: increased the caspase 3/7 activity
